Here are results for 16 molecules from US20040175378A1, “Selected antibody compositions and methods for binding to aminophospholipids” (Board of Regents, The University of Texas System, priority 2002, published 2004).

For data set [1] the following is noted: progressive disease before treatment; cited from earlier work.
Another data set deals with bEnd.3 endothelial cells. The data set can be described thus: PS translocation and viability of bEnd.3 cells treated with H2O2. The note with it: low levels of H2O2.
The subject of the next data set is HUVEC and HMVEC. In words: Induction of PS exposure on endothelial cells, FACS of 3G4 binding. The settings on record: 10 nM, 24 hrs. In kind it is cell-based, Human. On the procedure:
FIG. 24A and FIG. 24B. Induction of PS exposure on endothelial cells by docetaxel. Human umbilical vein endothelial cells (HUVEC) and human microvessel endothelial cells (HMVEC) were treated with 10 nM of docetaxel for 24 hrs. […] The cells were then washed twice, FITC labeled goat anti-mouse IgG was added and the cells incubated for a further 30 mins. on ice. The cells were then washed and analyzed by FACS using a FACSCalibur cytometer (Becton-Dickinson, San Jose, Calif.) with CellQuest acquisition software.
The induction of PS exposure on endothelial cells by subclinical concentrations of docetaxel was examined in vitro by FACS analysis. Human umbilical vein endothelial cells (HUVEC) and human microvessel endothelial cells (HMVEC) were treated with 10 nM of docetaxel for 24 hrs and examined by FACS. […] Docetaxel incubations for 48 and 72 hrs were also conducted.

Data set [2] deals with 3LL, Colo26 and MDA-MB-435 cells. The data set can be described thus: Induction of PS exposure on tumor cell lines, FACS of 3G4 binding. Type of data set: cell-based. The settings on record: 10 nM, 24 hrs, Colo26, MDA-MB-435. Here is the method:
FIG. 25A, FIG. 25B and FIG. 25C. Induction of PS exposure on tumor cell lines by docetaxel. Mouse lewis lung carcinoma 3LL, mouse colon carcinoma Colo26 and human breast cancer MDA-MB-435 cells were treated with 10 nM of docetaxel for 24 hrs. […] The cells were then washed twice, FITC labeled goat anti-mouse IgG was added and the cells incubated for a further 30 mins. on ice. The cells were then washed and analyzed by FACS using a FACSCalibur cytometer (Becton-Dickinson, San Jose, Calif.) with CellQuest acquisition software.
The in vitro induction of PS exposure by subclinical concentrations of docetaxel was also examined by FACS analysis using a panel of tumor cell lines. Mouse lewis lung carcinoma 3LL, mouse colon carcinoma Colo26 and human breast cancer MDA-MB-435 cells were treated with 10 nM of docetaxel for 24 hrs and examined by FACS. […] Docetaxel incubations for 48 and 72 hrs were also conducted.

The next data set deals with bEnd.3 cells. In words: PS exposure by 125I-annexin V binding. Type of data set: cell-based, Mouse. The note with it: bEnd.3, 24 h. Here is the method: (§1) All reagents were diluted in medium containing 10% serum and incubated with the cells at 37° C. for 24 h.
(§2) To study the effect of hypoxia, cells were seeded on 24 well plates and were incubated in a humidified normoxic atmosphere (21% O2, 5% CO2) for 48 h before being transferred to a humidified hypoxic atmosphere (1% O2, 5% CO2, 94% N2) in a sealed chamber (Billups Rothenberg Inc., Del Mar, Calif.). Cells were incubated in a hypoxic chamber for 24 h at 37° C. and were then returned to a normoxic environment for 4 h at 37° C. The cells were compared to a parallel culture from an identical passage, seeded on the same day and maintained entirely under normoxic conditions. In some studies, IL-1α (10 ng/ml) and TNFα (20 ng/ml) were added to the medium before transfer to the hypoxic chamber.
(§3) After treatment with the reagents described above, treated and control cells were incubated with 7.1 pmoles of ^125I-labeled annexin V (200 μl/well) in the binding buffer. After 2 h incubation at room temperature, cells were washed extensively and dissolved in 0.5 M of NaOH. The entire volume of 0.5 ml was transferred to plastic tubes and counted in a gamma counter. Non-specific binding was determined in the presence of 5 mM EDTA and was subtracted from experimental values. The results were expressed as net pmoles of cell-bound annexin V, normalized per 1×10^6 cells.
(§4) Maximal binding of annexin V was determined on cells simultaneously treated with actinomycin D and TNFα (50 ng/ml of each component). As has been previously reported, these agents cause apoptosis and PS exposure in 90-100% of endothelial cells (Lucas et al., 1998). Basal binding of ^125I-annexin V to untreated cells was determined in the presence of medium with 10% serum. The amount of ^125I-annexin V that bound to the untreated cultures was subtracted from that in the treated cultures. Exposure of PS was calculated according to the following formula: cell-bound annexin V (pmoles) under experimental conditions divided by maximal annexin V binding (pmoles), multiplied by 100. Each study was performed in duplicate and was performed at least three times. Mean values were calculated. The SE of the mean values from three separate experiments was less than 5%.

A further data set relates to ABAE cells. The data set can be described thus: PS exposure by 125I-annexin V binding. In kind it is cell-based, bovine. The settings on record: 24 h. Here is the method:
as §1, §2, §3, §4

A further data set has as its system mCMV RVG102. In words: Survival of mCMV-infected mice. Type of data set: in vivo, Balb/C mice. The note with it: 1 mg/mouse i.p. day 1, 0.5 mg/mouse every four days until day 26; past 90 days.
The nature of data set [3]: Binding of chimeric 3G4 to phospholipid-coated ELISA plates. From the text:
FIG. 21. […] Phospholipids (PS, PI, PE, PC, SM, CL, PG and PA) were adsorbed to plastic of microtiter plates.

In data set [4] the test system is orthotopic MDA-MB-435 breast cancer. The data set can be described thus: 3G4 and ch3G4 tumor treatment. In kind it is in vivo, mice. The settings on record: i.p. 800 μg day 15, 200 μg every two to three days, 400 μg day 35. Here is the method: Tumors were also established using MD-MBA-435s cells and treated as described above. […] The treatment of large L540 tumors, MDA-MB-231 and MD-MBA-435s tumor cells for 60 days is shown in FIG. 8D, FIG. 8E and FIG. 8F. The antibodies caused tumor vascular injury, thrombosis and necrosis and retarded tumor growth, with no evidence of toxicity.
MD-MBA-435s lucerifase cells were obtained from Dr. Angels Sierra Jimenez, Barcelona, Spain and were grown in 10% DMEM. Mice were injected with tumor cells as described as above, and at 2 weeks post injection, the tumors were measured and the volume recorded. […] Treatment was initiated by IP injection (800 μg) at day 15 and continued with injections of 200 μg every two to three days until the final injection of 400 μg at day 35. Tumor volumes and mouse body weights were measured on injection days. Mice were sacrificed and perfused with saline for 12 minutes. The organs and tumor were removed, snap-frozen in liquid nitrogen and the tumor sectioned for immunohistochemistical analysis.

The subject of data set [5] is Vaccinia virus-infected U937 cells. Type of data set: cell-based. The settings on record: day 2 after infection, m.o.i. 2.
Data set [6] concerns tumor vascular endothelium of MDA-MB-435 tumors. The data set can be described thus: Localization of biotinylated ch3G4 in tumors. The note with it: i.v., one hour. Type of data set: in vivo, mice. On the procedure:
Localization of ch3G4 was examined in MDA-MB-435 human breast cancer cells growing in mice. Mice were injected intravenously with biotinylated ch3G4 or control IgG of irrelevant specificity. One hour later, the mice were exsanguinated, and their tumors were removed and frozen sections were cut. Biotinylated reagents were first incubated with streptavidin-Cy3 conjugate, washed in PBS, then incubated with MECA 32 antibody followed by FITC-tagged secondary antibody. Single images, taken with appropriate filters for Cy3 (red) and FITC (green) fluorescence respectively, were captured by digital camera and transferred to a computer.

For `NC(=O)c1nnn(Cc2cc(Cl)c(C(=O)c3ccc(Cl)cc3)c(Cl)c2)c1N` [CAI, carboxyamidotriazole], the “cancer patients with disease stabilization” value in data set [1] is 49%.

As to `OO` [Hydrogen peroxide, hydrogen peroxide], in the data set with bEnd.3 endothelial cells, the cell viability (usually a read-out of living cells in per cent, often relative to untreated cells) is recorded as 95%.

On to `CC(=O)O[C@@]12CO[C@@H]1C[C@H](O)[C@@]1(C)C(=O)[C@H](O)C3=C(C)[C@@H](OC(=O)[C@H](O)[C@@H](NC(=O)OC(C)(C)C)c4ccccc4)C[C@@](O)([C@@H](OC(=O)c4ccccc4)[C@H]21)C3(C)C` [docetaxel], for which the “3G4 binding as compared to untreated cells” value in the data set on HUVEC and HMVEC is recorded as “significant increase in 3G4 binding”. In addition, the “3G4 binding as compared with untreated cells” value in [2] is on record as “significant increase in 3G4 binding”.

Turning to FGF-2: human fibroblast growth factor-2, the “^125I-Annexin V (% of Max binding)” value in the data set with bEnd.3 cells (20 ng/ml) and in the data set with ABAE cells (20 ng/ml) was 0% in each case.

For the molecule IL-6: interleukin-6, the “^125I-Annexin V (% of Max binding)” value with bEnd.3 cells (20 ng/ml) and in the data set with ABAE cells (20 ng/ml) was 0% throughout.

Turning to IL-8: interleukin-8, the “^125I-Annexin V (% of Max binding)” value with bEnd.3 cells (20 ng/ml) and in the data set with ABAE cells (20 ng/ml) was 0% in each case.

With IL-10: interleukin-10, the “^125I-Annexin V (% of Max binding)” value in the data set with bEnd.3 cells (20 ng/ml) and with ABAE cells (20 ng/ml) was 0% each time.

Regarding Interferon, the results for the “^125I-Annexin V (% of Max binding)” value in the data set on bEnd.3 cells (40 ng/ml) and with ABAE cells (40 ng/ml) were 2.8% and 8.6%, respectively.

For “Scatter factor: recombinant hepatocyte growth factor”, the “^125I-Annexin V (% of Max binding)” value in the data set with bEnd.3 cells (40 ng/ml) and with ABAE cells (40 ng/ml) was 0% in each case.

As to TGF β1: growth factor, the “^125I-Annexin V (% of Max binding)” value in the data set on bEnd.3 cells (20 ng/ml) and in the data set with ABAE cells (20 ng/ml) was 0% each time.

Consider TNFα, for which the “^125I-Annexin V (% of Max binding)” value in the data set on bEnd.3 cells (20 ng/ml) is recorded as 13.7%; in the data set on ABAE cells (20 ng/ml) it was 7.4%.

Thrombin: the “^125I-Annexin V (% of Max binding)” value in the data set with bEnd.3 cells (50 nM) is recorded as 17.4%; with ABAE cells (50 nM), 8.8%.

For VEGF, the “^125I-Annexin V (% of Max binding)” value in the data set with bEnd.3 cells (20 ng/ml) and in the data set on ABAE cells (20 ng/ml) was 0% each time.

With “ch3G4: human-mouse chimeric 3G4: murine variable regions on human γ1 and κ constant regions, expressed in CHO cells”, the survival with mCMV RVG102 was found to be 80%. For the same molecule, in data set [3], the “binding to phospholipid-coated ELISA plates” value is “bound at least as did well as the murine 3G4”. For the same molecule, the “tumor growth as opposed to control” value in data set [4] is reported as “effectively retarded tumor growth”. Moreover, the “binding to virus-infected vs uninfected cells (FACS)” value in data set [5] was “significant shift”. Besides, the “localization to tumor vascular endothelium” value in data set [6] is listed as “binds to the tumor vascular endothelium”.

B1: IL-1α: recombinant murine interleukin-1 alpha (protein, UniProt P01582 115-270, looked up)
Interleukin-1 alpha: SAPYTYQSDLRYKLMKLVRQKFVMNDSLNQTIYQDVDKHYLSTTWLNDLQQEVKFDMYAYSSGGDDSKYPVTLKISDSQLFVSAQGEDQPVLLKELPETPKLITGSETDLIFFWKSINSKNYFTSAAYPELFIATKEQSRVHLARGLPSMTDFQIS
As to B1, the “^125I-Annexin V (% of Max binding)” value in the data set with bEnd.3 cells (10 ng/ml) amounted to 7.5%; in the data set with ABAE cells (10 ng/ml) it was 6.4%.

B2: IL-1β: recombinant murine interleukin-1 beta (protein, UniProt P10749 118-269, looked up)
Interleukin-1 beta: VPIRQLHYRLRDEQQKSLVLSDPYELKALHLNGQNINQQVIFSMSFVQGEPSNDKIPVALGLKGKNLYLSCVMKDGTPTLQLESVDPKQYPKKKMEKRFVFNKIEVKSKVEFESAEFPNWYISTSQAEHKPVFLGNNSGQDIIDFTMESVSS
In the case of B2, the entries for the “^125I-Annexin V (% of Max binding)” value with bEnd.3 cells (10 ng/ml) and in the data set with ABAE cells (10 ng/ml) were 5.5% and 5.8%, respectively.
